Test results from US20160120882A1, “COMPOSITION HAVING A BENEFICIAL EFFECT ON THE CARDIOVASCULAR SYSTEM” (ESSENTIAL IP BV, priority 2013, published 2016).
Values joined by “and” are separate entries in the source; they are usually repeats but may differ in a detail not shown here. Equal values may be shown once. Where a name gives a salt, the structure may show the parent alone. Read-outs that look alike come from different tables or passages of the source.

Experiments:
[1] = test system: human monocytic THP-1 cells; experiment: uptake of fluorescently labeled oxLDL by PMA-stimulated THP-1 macrophages (foam cell formation model), FACS; format: cell-based; details: for effect on the uptake of oxLDL: PMA-stimulated THP-1 cells, FIG. 1; for oxLDL uptake, Average: average of 6 independent measurements; for oxLDL uptake, Average / oxLDL uptake [Median Fluorescence intensity]: VitD3 100 nM, lycopene 0.5 uM, monacolin K 10 uM, control average 12617; for oxLDL uptake [Median Fluorescence intensity]: single measurement (1-6), 24 h pre-treatment, then 10 ug/ml Dil-oxLDL 24 h
Text: We employed a model for measuring the oxLDL uptake by macrophages, a known and accepted model for determining foam cell formation, which in turn is an accepted measure for plaque formation as well as for the development of atherosclerosis and decreasing vascular health in general. Our experimental data are therefore relevant for determining the beneficial effects of several active ingredients on the cardiovascular system.
More in detail, we stimulated human monocytic THP-1 cells [Tsuchiya S, Yamabe M, Yamaguchi Y, Kobayashi Y, Konno T, Tada K (August 1980). “Establishment and characterization of a human acute monocytic leukemia cell line (THP-1)”. Int. J. Cancer 26 (2): 171-6. doi:10.1002/ijc.2910260208.] with phorbol 12-myristate 13-acetate (PMA) and contacted or pre-treated the cells with a number of active ingredients. After 24 hours of pre-treatment, the cells were contacted with or exposed to fluorescently labeled oxLDL and uptake of oxLDL was determined after 24 hours (see example 1).
THP-1 cells (P7) were plated in a 96-wells suspension culture plate at a density of 1*10̂6 cells/ml whereby 1*10̂5 cells were plated. Cells were cultured in IMDM phenol-red free medium (Invitrogen, Eugene, Oreg., USA) enriched for 10% fetal calf serum (FCS), 100 U/ml penicillin, 100 μg/ml streptomycin and 2 mM L-glutamin. Monocytes were differentiated with 50 ng/ml phorbol 12-myristate 13-acetate (PMA) (Sigma Aldrich, St. Louis, Mo. USA) for 48 h where after medium was replaced. After differentiation, macrophages were cultured in the presence or absence of different compounds for 24h (Table 2). After pre-treatment, cells were exposed to 10 ug/ml Dil-labeled oxidized lipoprotein (oxLDL) (Biotrend Chemikalien GmbH, Cologne, Germany) for another 24h at 37° C. to enable foam cell formation in the absence of presence of the different compounds (FIG. 1). After this, cells were washed with PBS (−/−) (PAA, Pitscataway, N.J., USA) and detached by Lidocaine hydrochloride (4 mg/ml) EDTA (10 mM) solution (Sigma Aldrich, St. Louis, Mo. USA)/(Invitrogen, Eugene, Oreg., USA). Cells were washed two more times with FACS buffer (PBS containing 0.5% BSA and 0.2 mM EDTA) and transferred to a 96 U-shaped plate for FACS analysis. Analysis was performed on the FACS Canto II HTS and 1,1′-dioctadecyl-3,3,3′3′-tetra-methylindocyanide percholorate (Dip-labeled oxLDL uptake was measured in PE-A channel.
Macrophages were exposed to vitamin D3, lycopene and/or monacolin K and the inhibitory effect of oxLDL uptake of these three active ingredients was measured. The inhibitory potentiol of each compound and composition was expressed as the difference between the measurements obtained with and without the compound or composition.

[2] = subjects with high blood pressure; cited from earlier work
[3] = various clinical trial data; cited from earlier work
[4] = calculated from the NOAEL in rats; cited from earlier work
[5] = daily intake of Red Yeast Rice containing 10 mg monacolin K; cited from earlier work
[6] = clinical studies; cited from earlier work
[7] = cited from earlier work
[8] = cyclosporine 3 mg/kg twice daily; berberine 0.2 g three times a day for three months; cited from earlier work
CYP1A1 = molecular target: T1, CYP1A1 (Homo sapiens, UniProt P04798); details: in vitro; cited from earlier work
T1 sequence (P04798 1-512): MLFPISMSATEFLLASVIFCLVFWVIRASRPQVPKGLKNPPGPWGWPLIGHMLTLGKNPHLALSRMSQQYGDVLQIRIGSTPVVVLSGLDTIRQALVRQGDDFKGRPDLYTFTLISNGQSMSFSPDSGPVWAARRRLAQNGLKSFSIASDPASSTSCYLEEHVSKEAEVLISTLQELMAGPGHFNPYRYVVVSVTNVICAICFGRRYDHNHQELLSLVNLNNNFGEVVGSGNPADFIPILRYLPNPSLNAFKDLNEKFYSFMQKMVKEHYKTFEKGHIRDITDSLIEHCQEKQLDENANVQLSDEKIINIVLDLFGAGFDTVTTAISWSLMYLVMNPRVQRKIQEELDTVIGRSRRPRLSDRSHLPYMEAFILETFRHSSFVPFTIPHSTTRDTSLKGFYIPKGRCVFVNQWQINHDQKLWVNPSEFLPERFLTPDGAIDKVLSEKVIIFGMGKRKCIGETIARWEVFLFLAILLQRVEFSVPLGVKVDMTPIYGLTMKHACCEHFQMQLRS

[9] = mouse, in vivo; cited from earlier work
[10] = rat, in vivo; cited from earlier work
[11] = high versus low dietary intake of vitamin K2; cited from earlier work
[12] = per increase in dietary intake of vitamin K2 by 10 microgram; 8 years, 480 cardiovascular events; cited from earlier work
[13] = cited from earlier work; remark: listed apart in the source
[14] = cited from earlier work; remark: listed apart in the source
[15] = lycopene group versus 30% in control group; cited from earlier work
[16] = lycopene from all sources (EFSA, 2008); cited from earlier work
[17] = subgroup of trials using lycopene dosages of >=25 mg daily

## C=C1CC[C@H](O)C/C1=C/C=C1\CCC[C@]2(C)[C@@H]([C@H](C)CCCC(C)C)CC[C@@H]12 [VitD3, Vitamin D3]
[1]
  effect on the uptake of oxLDL: no effect
  oxLDL uptake, Average: 12300 Median Fluorescence intensity
  oxLDL uptake [Median Fluorescence intensity]: 13100 Median Fluorescence intensity and 13200 Median Fluorescence intensity and 12600 Median Fluorescence intensity and 10900 Median Fluorescence intensity

## COC1=C(OC)C(=O)C(C/C=C(\C)CC/C=C(\C)CC/C=C(\C)CC/C=C(\C)CC/C=C(\C)CC/C=C(\C)CC/C=C(\C)CC/C=C(\C)CC/C=C(\C)CCC=C(C)C)=C(C)C1=O [CoQ10, Coenzyme Q10]
[2]
  mean decrease in diastolic blood pressure: 7-10 mmHg
  mean decrease in systolic blood pressure: 11-17 mmHg
[3]
  observed safety level (OSL): 1200 mg/day/person
[4]
  acceptable daily intake (ADI): 12 mg/kg/day

## CC[C@H](C)C(=O)O[C@H]1C[C@@H](C)C=C2C=C[C@H](C)[C@H](CC[C@@H]3C[C@@H](O)CC(=O)O3)[C@H]21 [Monacolin K]
[1]
  effect on the uptake of oxLDL: no effect
  oxLDL uptake, Average: 12667 Median Fluorescence intensity
  oxLDL uptake [Median Fluorescence intensity]: 14300 Median Fluorescence intensity and 11900 Median Fluorescence intensity and 11700 Median Fluorescence intensity and 11800 Median Fluorescence intensity and 14400 Median Fluorescence intensity
[5]
  LDL cholesterol lowering: LDL cholesterol lowering of 7-25%
  lowering of triglyceride blood levels: by 10-44%
  relative increase of HDL: Relative increase of HDL up to 17%

## COc1ccc2cc3[n+](cc2c1OC)CCc1cc2c(cc1-3)OCO2 [Berberine]
[6]
  reduction of total cholesterol: 15-18%
[7]; P<0.001
  reduction of fasting plasma insulin: 28.1%
  reduction of insulin resistance index: 44.7%
[7]; decreased from 8.1%
  HBA1c after treatment: 7.3%
[8]
  increase of mean cyclosporine A Area under the Curve (AUC): 34.5%
CYP1A1
  effect on CYP1A1: inhibit CYP1A1

## COc1ccc2cc3[n+](cc2c1OC)CCc1cc2c(cc1-3)OCO2 [berberine HCL]
[9]
  LD50: > 29586 mg/kg
[10]
  LD50: > 15000 mg/kg

## CC(C)=CCC/C(C)=C/CC/C(C)=C/CC/C(C)=C/CC1=C(C)C(=O)c2ccccc2C1=O [vitamin K2, Vitamin K2]
[11]
  less calcification of the aorta: 52%
  less myocardial infarctions: 57%
  less overall mortality: 26%
[12]
  risk reduction: 9%

## CC(C)=CCC/C(C)=C/C=C/C(C)=C/C=C/C(C)=C/C=C/C=C(C)/C=C/C=C(C)/C=C/C=C(\C)CCC=C(C)C [Lycopene]
[1]
  effect on the uptake of oxLDL: slightly inhibited
  oxLDL uptake, Average: 11405 Median Fluorescence intensity
  oxLDL uptake [Median Fluorescence intensity]: 9832 Median Fluorescence intensity and 11500 Median Fluorescence intensity and 12200 Median Fluorescence intensity and 11900 Median Fluorescence intensity and 11300 Median Fluorescence intensity and 11700 Median Fluorescence intensity
[13]; meta-analysis of 12 studies
  HDL levels: remained unchanged
[13]; [17]
  LDL cholesterol lowering: LDL cholesterol lowering of 10%
  total serum cholesterol lowering: 10%
[13]; subgroup of trials using lycopene dosages of >=25 mg daily, listed as lycopene
  LDL cholesterol lowering: 10%
[14]; Table 1 summary range
  Systolic blood pressure lowering: 5.6-9.5 mmHg
[14]; meta-analysis of 4 studies
  systolic blood pressure reducing effect: 5.60 mmHg
[14]; subgroup of trials with high blood pressure at baseline (SBP >=140 mm Hg)
  systolic blood pressure reduction: 9.35 mmHg
[15]
  incidence of prostate cancer: 10%
[16]
  acceptable daily intake (ADI): 0.5 mg/kg/day
